Source: patent US20060270591A1, “Androgen receptor coregulators” (priority 2002, published 2006)

Tests used:
ER = biological target: T1, ER (Homo sapiens, UniProt P03372); experiment: ER transactivation with ARA70 in DU145 cells (Example 3); type: cell-based; parameters: expressed in transfected cells; host or cells: DU145
T1 sequence (P03372 1-595): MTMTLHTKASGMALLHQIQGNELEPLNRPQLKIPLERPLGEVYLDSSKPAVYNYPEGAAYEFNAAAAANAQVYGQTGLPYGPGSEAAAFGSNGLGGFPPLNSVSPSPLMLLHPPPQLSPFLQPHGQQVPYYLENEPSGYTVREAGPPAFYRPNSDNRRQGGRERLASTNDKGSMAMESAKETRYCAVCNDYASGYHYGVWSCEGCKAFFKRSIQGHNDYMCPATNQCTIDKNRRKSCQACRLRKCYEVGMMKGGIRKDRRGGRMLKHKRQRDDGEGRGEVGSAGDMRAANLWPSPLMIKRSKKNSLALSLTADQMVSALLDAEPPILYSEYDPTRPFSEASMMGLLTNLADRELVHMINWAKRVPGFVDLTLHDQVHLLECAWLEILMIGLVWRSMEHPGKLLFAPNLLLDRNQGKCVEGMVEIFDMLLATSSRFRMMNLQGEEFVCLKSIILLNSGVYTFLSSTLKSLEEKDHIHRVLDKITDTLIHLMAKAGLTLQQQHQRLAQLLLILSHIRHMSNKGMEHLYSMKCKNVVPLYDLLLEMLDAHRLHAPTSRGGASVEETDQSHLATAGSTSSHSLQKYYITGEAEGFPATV
Experimental: 411. Human prostate cancer DU145 and PC-3 cells were maintained in […] (DMEM) containing penicillin (25 U/ml), streptomycin (25 μg/ml), and 5% fetal calf serum (FCS). Human LNCaP cells were maintained in RPMI containing penicillin (25 U/ml), streptomycin (25 μg/ml), and 10% FCS. Transfections were performed using the calcium phosphate precipitation method, as previously described (Dynlacht et al. (1991) Cell 66, 563-576). Briefly, 4×10^5 cells were plated on 60-mm dishes 24 hours before transfection, and the medium was changed to DMEM with 5% charcoal-dextran stripped FCS (CS-FBS) one hour before transfection. Transfection medium contained a constant amount of reporter plasmid and indicated amounts of pSG5-receptor, ARA70, or pCMX-GAL fusion construct using pSG5 as a carrier to provide equal amounts of transfected DNA. Twenty-four hours after transfection, the medium was changed again, and the cells were treated with DHT or other treatments. After another 24 hours, the cells were harvested for chloramphenicol transferase (CAT) or luciferase assays. At least three independent experiments were carried out in each case. Superfect (Qiagen) was used for transfection in LNCaP cells. The transfection conditions followed the manufacturer's protocol. […]

AR [1] = experiment: Immunocytofluorescence, semi-quantitative nuclear AR staining in COS-1 cells; type: cell-based; conditions: 10 nM DHT, p<0.0005
Experimental: 415. COS-1 cells were seeded on two-well Labtek II slides (Nalge) 24 hours before transfection. Two micrograms of DNA per 10^5 cell was transfected with the AR, with or without full length ARA70 (ARA70-FL) using FuGENE6 transfection reagent (Roche). […] Immunostaining was performed by incubation with anti-AR polyclonal antibody (NH27) or anti-ARA70 mouse monoclonal antibody (CC70), followed by incubation with either fluorescence-conjugated goat anti-rabbit or anti-mouse antibodies (ICN). The red signal represents the AR and the green signal represents ARA70.
416. Three hundred cells with normal morphologies and clear AR nuclear translocation were scored for AR staining using a fluorescence microscope. Cells were scored on a scale of one to five, with one representing the lowest AR staining intensity above the background level. The cells were then separated into two groups based on the presence or absence of ARA70.
417. The mean AR staining intensity and standard deviation were then calculated for the ARA70 negative and positive populations. Using […], a two sample t-test (assuming unequal variances) was then performed to determine if the difference in the mean AR staining intensities in the two populations was statistically significant (α=0.05).

ER-α = biological target: T2, ER-α (Homo sapiens, UniProt P03372); experiment: ER-α transactivation reporter assay (ERE-Luc) with SV; type: cell-based
T2 sequence (P03372 1-595): T1 sequence (P03372 1-595)
Experimental: 42. […] (A) The interaction of SV with AR, GR, PPAR-γ and ER-α is tested in mammalian two-hybrid assay. One μg plasmids expressing Gal4(DBD)-AR, GR, PPAR-γ or ER-α was co-transfected with 4 μg plasmids expressing VP16 or VP16-SVn to COS-1 cells. […] The assay method was the same as described in FIG. 29. Relative activities of ligand treatment to EtOH treatment are shown. (B) The coactivation function of SV in different receptors was assayed using reporter gene study. MMTV-Luc, PPRE-Luc, ERE-Luc are the reporter genes for AR, GR, PPAR-γ, and ER-α respectively. Lanes 1, 5, 9 and 13 are regarded as 1 fold in each panel.
(§1) 475. In AR transactivation activity assays, transfections were performed using SuperFect (Qiagen, Chatsworth, Calif.) following protocols described in manual provided by Qiagen. Briefly, cells were plated on 35 mm dishes and after 24 h were transfected using the SuperFect kit. The total DNA amount was adjusted to 2 μg with pSG5 or pEGFP vectors. The medium was changed to DMEM with 10% CD-FBS 2 h after transfection. After 24 h, the DMEM with 10% CD-FBS was changed again, and the cells were treated with various steroids. Cells were harvested after 24 h for dual-luciferase assay as described in protocol provided by Promega. At least three independent experiments were carried out in each case.

AR [2] = experiment: AR transactivation dual-luciferase assay with supervillin (Example 6); type: cell-based, human
Experimental: as §1, with “In” for “475. In”

AR, sequence (P10275 with tags, fused parts or gaps DEL79-80/DUP473-473): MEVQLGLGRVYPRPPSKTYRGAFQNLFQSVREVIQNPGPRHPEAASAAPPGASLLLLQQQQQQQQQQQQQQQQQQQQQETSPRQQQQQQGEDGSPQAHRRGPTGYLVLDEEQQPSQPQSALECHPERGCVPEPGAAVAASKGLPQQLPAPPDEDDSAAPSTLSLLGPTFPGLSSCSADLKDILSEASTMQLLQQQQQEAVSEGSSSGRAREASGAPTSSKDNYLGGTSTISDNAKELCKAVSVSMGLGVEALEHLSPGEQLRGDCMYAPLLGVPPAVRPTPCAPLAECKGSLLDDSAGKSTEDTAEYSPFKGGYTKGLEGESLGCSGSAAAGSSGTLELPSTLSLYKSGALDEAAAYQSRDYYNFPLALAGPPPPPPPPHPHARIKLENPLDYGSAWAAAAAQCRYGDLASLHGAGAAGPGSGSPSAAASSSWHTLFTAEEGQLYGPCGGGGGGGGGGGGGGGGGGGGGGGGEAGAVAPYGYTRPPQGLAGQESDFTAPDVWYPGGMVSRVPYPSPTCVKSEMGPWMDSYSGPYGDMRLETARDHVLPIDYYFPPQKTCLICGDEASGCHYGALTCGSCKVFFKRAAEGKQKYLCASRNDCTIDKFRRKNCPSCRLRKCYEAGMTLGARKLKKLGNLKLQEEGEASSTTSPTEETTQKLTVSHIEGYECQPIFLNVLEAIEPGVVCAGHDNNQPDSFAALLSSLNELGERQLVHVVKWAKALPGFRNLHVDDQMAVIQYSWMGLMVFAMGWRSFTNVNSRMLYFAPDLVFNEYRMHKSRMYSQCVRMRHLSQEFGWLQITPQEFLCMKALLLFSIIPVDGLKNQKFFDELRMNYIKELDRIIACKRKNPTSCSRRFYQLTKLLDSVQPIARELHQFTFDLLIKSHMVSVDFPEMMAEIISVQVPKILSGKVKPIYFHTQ

Substance	enhancement of ER transactivation (ER)	nuclear AR staining intensity (AR [1])	effect on the transactivation of ER-α (ER-α)	enhancement of AR transactivation (AR [2]; C2C12 muscle cells, bSV:AR plasmids 25:1 and 50:1, DHT)	AR transactivation with EGFP-bSV construct (AR [2]; COS-1 cells, 10 nM DHT, MMTV-Luc)	effect on Adiol induced AR transactivation (AR [2]; COS-1 cells, 10 nM steroid)	effect on E2- or HF-induced AR transactivation (AR [2]; COS-1 cells, 10 nM steroid)	effect on T and DHT induced AR transactivation (AR [2]; COS-1 cells, 10 nM steroid)
ARA70: ligand-enhanced AR coregulator, full length ARA70	2-3 fold	significantly enhances nuclear AR staining intensity						
SV: supervillin, 205 kDa actin binding protein; bovine SV (a.a. 1-1792) used in reporter assays			little effect	3-8 fold	132 fold	slightly enhances	marginal effect	significantly enhances
